In experiment [1] the test system is human topoisomerase IIα. Also on record: method as in PMID 18461976. Conditions: 100 μM solutions; cited from earlier work.
Experiment [2] deals with T1, Topoisomerase II α human (Homo sapiens, UniProt P11388).
T1 construct: purchased Sigma Aldrich (St. Louis, MO, USA)
As to the kind of experiment: Isothermal titration calorimetry (ITC) of interactions with TOPIIα. It is filed as binding. The note with it: single compounds; for ∆G (kJ/mol) ITC / ∆H (kJ/mol) ITC: 36.6 °C, mean ± SD, n = 6. The procedure:
The parameters of interactions of coffee and its components with TOPIIα were carried out using the isothermal titration calorimetry (ITC) (MicroCal PEAQ-ITC 200, Malvern, Worcestershire, UK). Analyses were carried out according to Grzelczyk et al., with some modifications. A calorimeter cell with a capacity of 0.2 mL was filled with 0.1 μmol/L of TOPIIα solution in ultrapure water (deionized, LC-MS grade); the syringe was subsequently filled with titrants as degassed aqueous solutions of chlorogenic acids (CHAs); green, light-, or dark-roasted coffee extracts; coffee fraction; before and after in vitro digestion, at concentrations of 10 mmol/L (coffee extracts at concentrations of 0.1 mmol/L calculated based on 5-caffeoylquinic acid). The measurements were carried out at 36.6 °C with continuous stirring at 307 rpm (10 injections, 25 min). During the ITC analysis, an exothermic or endothermic reaction was recorded, when the binding of compounds to the enzyme occurred. The heat was generated as a consequence of ligand-to-protein binding, which is observed as an energy peak (raw data of heat in […]). The titration of a ligand into water was performed to subtract the energetic effects of dilution. The enthalpy changes (∆H), Gibbs free energy changes (∆G), and entropy changes (∆S) were calculated from the ITC titration nonlinear least squares saturation curve fitting carried out using MicroCal PEAQ-ITC200 software 1.30 [40].
A general note: ITC needs no label: the signal is the heat of the interaction.

Where [3] appears, read: listed as 4,5-di-O-caffeoylquinic acid.

Marks after values point to notes of the source that are not given here.

T1 sequence (P11388 whole entry): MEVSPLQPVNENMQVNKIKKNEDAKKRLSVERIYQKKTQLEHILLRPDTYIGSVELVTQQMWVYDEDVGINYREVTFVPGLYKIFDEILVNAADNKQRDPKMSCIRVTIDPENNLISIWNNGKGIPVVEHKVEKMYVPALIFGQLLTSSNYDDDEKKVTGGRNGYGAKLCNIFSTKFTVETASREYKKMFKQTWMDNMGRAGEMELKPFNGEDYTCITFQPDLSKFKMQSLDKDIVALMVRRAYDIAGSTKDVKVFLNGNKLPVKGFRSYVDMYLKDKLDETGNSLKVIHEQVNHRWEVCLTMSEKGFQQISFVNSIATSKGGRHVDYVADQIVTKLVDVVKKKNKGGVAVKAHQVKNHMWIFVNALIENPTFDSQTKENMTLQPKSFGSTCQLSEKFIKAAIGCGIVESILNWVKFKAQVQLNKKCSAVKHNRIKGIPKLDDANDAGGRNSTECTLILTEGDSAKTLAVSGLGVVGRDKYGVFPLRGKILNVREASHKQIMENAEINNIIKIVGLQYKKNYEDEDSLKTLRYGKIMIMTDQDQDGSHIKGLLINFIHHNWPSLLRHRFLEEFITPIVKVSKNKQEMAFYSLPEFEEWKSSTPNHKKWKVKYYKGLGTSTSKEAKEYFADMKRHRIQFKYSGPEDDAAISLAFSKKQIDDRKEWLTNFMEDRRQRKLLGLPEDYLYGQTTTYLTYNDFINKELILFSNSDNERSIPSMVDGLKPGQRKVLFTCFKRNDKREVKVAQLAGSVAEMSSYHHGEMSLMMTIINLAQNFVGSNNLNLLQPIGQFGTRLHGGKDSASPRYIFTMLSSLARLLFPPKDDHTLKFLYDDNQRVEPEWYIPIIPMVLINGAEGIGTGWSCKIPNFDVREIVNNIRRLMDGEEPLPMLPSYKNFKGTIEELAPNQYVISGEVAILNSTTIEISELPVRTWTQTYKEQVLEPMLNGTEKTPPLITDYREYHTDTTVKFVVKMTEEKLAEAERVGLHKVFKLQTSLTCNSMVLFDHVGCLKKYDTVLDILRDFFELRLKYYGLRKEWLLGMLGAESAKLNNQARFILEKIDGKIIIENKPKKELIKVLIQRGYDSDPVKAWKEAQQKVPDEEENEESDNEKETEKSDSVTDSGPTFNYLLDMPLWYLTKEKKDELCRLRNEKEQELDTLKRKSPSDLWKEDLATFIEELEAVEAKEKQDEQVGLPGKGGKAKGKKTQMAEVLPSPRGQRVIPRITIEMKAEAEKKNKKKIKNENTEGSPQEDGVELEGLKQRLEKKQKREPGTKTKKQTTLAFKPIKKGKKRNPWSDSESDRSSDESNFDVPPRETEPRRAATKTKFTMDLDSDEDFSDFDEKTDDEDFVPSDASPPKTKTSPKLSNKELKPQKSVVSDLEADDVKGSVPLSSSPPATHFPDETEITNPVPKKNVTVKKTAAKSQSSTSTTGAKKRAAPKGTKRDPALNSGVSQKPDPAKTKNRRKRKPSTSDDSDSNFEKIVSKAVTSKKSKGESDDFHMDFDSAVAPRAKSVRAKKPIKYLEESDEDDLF

In the case of `O=c1c(O)c(-c2ccc(O)cc2)oc2cc(O)cc(O)c12` [kaempferol], in experiment [1], the “mode of action on human topoisomerase IIα” value (“mode of action” below) is given as “redox-dependent poisons rather than the enzyme inhibitors”. For `O=c1c(O)c(-c2ccc(O)c(O)c2)oc2cc(O)cc(O)c12` [quercetin], the “mode of action” value in experiment [1] was “redox-dependent poisons rather than the enzyme inhibitors”. As to `O=C(C=Cc1ccc(O)c(O)c1)OC1CC(O)(C(=O)O)CC(OC(=O)C=Cc2ccc(O)c(O)c2)C1O` (centres unmarked) [3,5-Di-O-caffeoylquinic acid], in experiment [2], the “∆G (kJ/mol) ITC” value was −33.87 ± 1.39 ^a kJ/mol and the “∆H (kJ/mol) ITC” value is reported as −8.00 ± 0.45 ^c,a kJ/mol. Take `O=C(C=Cc1ccc(O)c(O)c1)OC1CC(O)(C(=O)O)CC(O)C1OC(=O)C=Cc1ccc(O)c(O)c1` (centres unmarked) [4,5-Di-O-caffeoylquinic acid]: the “∆G (kJ/mol) ITC” value is −37.64 ± 1.35 ^c kJ/mol in experiment [2] and -37.64 kJ/mol in experiment [2] (setting [3]). Moreover, the “∆H (kJ/mol) ITC” value in experiment [2] was −1.78 ± 0.15 ^d kJ/mol; in experiment [2] (setting [3]), -1.78 kJ/mol. With `Cn1c(=O)c2c(ncn2C)n(C)c1=O` [Caffeine, reference compound], in experiment [2], the “∆G (kJ/mol) ITC” value was −34.50 ± 1.15 ^d kJ/mol and the “∆H (kJ/mol) ITC” value is recorded as −6.28 ± 0.45 ^e kJ/mol. For the compound `O=C(O)CCc1ccc(O)c(O)c1` [Dihydrocaffeic acid], in experiment [2], the “∆G (kJ/mol) ITC” value is on record as −34.42 ± 1.33 ^d kJ/mol and the “∆H (kJ/mol) ITC” value was −6.49 ± 0.29 ^e kJ/mol. As for `O=c1c(O)c(-c2cc(O)c(O)c(O)c2)oc2cc(O)cc(O)c12` [myricetin], the “mode of action” value in experiment [1] is listed as “redox-dependent poisons rather than the enzyme inhibitors”.

With `O=C(O)/C=C/c1ccc(O)c(O)c1` [Caffeic acid], in experiment [2], the “∆G (kJ/mol) ITC” value was −33.54 ± 1.09 ^a kJ/mol and the “∆H (kJ/mol) ITC” value is listed as −9.04 ± 0.25 ^a kJ/mol. Consider `C=CC(N)=O` [Acrylamide], for which, in experiment [2], the “interactions with TOPIIα in ITC measurements” value is reported as “did not show significant interactions”. Consider `O=Cc1ccc(CO)o1` [5-(Hydroxymethyl)furfural], for which, in experiment [2], the “interactions with TOPIIα in ITC measurements” value is given as “did not show significant interactions”.

Source of the values: article PMC10457778, “Effects of In Vitro Digestion of Polyphenols from Coffee on Binding Parameters to Human Topoisomerase II α” (Molecules, 2023).
